Results on three compounds are retold here after patent US20080045580A1, “Novel Isoxazole Compounds Having Ppar Agonist Activity” (DR REDDY'S LABORATORIES LIMITED, priority 2004, published 2008).

For one data set, the target named is T1, human PPARγ1 (Homo sapiens, UniProt P37231).
T1 construct: expressed in transfected cells; host or cells: HEK-293
T1 sequence (P37231 238-503 limits assumed): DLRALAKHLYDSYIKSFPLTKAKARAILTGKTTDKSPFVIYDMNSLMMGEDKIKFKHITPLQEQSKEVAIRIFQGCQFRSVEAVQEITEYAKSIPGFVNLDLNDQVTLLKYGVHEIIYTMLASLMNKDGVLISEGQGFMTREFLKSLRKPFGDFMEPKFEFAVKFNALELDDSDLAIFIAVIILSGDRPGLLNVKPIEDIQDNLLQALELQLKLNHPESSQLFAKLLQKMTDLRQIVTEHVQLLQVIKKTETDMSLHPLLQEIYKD
As to the kind of experiment: in vitro PPARγ transactivation (GAL4-LBD luciferase reporter in HEK-293 cells). The format is cell-based. The note with it: 1 μM. The text has this:
(§1) The following procedure was used for in vitro determination of PPARα, γ and δ transactivation.
(§2) The ligand binding domain of human PPARγ1, PPARα or PPARδ was fused to the C-terminal end of DNA binding domain of yeast transcription factor GAL4 in eukaryotic expression vector. Using SuperFect (Qiagen), HEK-293 cells were transfected with this plasmid and a reporter plasmid harboring the luciferase gene driven under the control of 5 tandem GLA4 response elements. In some experiments, pAdVantage vector (Promega) was used to enhance luciferase expression. Compounds were added approximately 48 hours after transfection at various concentrations and incubated overnight. The cells were lysed and the luciferase activity was measured using the LucLite kit in Top Count (Packard). Luciferase activity was expressed as fold activation relative to untreated cells in the same experiment.
(In a reporter assay the amount or activity of a reporter protein is the signal.)
For `CCC(C)(Oc1ccc(OCc2cc(-c3ccc(C(F)(F)F)cc3)no2)cc1)C(=O)O` (stereo not drawn) [Example 11], the “PPARγ luciferase fold activation relative to untreated cells” value was determined as 2.4.
Same read-out and setting: as for `CC(C)(Oc1ccc(CCCc2cc(-c3ccccc3)no2)cc1)C(=O)O` [Example 28, 2-methyl-2-{4-[3-(3-phenylisoxazol-5-yl)propyl]phenoxy}propanoic acid], the figure is 2.0; as for `O=C(O)C1(Cc2ccc(OCc3cc(-c4ccc(C(F)(F)F)cc4)no3)cc2)CCCO1` (stereo not drawn) [Example 36], 4.3.

The same data set, now with this note: 10 μM.
Consider `CCC(C)(Oc1ccc(OCc2cc(-c3ccc(C(F)(F)F)cc3)no2)cc1)C(=O)O` (stereo not drawn) [Example 11], for which the “PPARγ luciferase fold activation relative to untreated cells” value is listed as 2.7.
Still for that read-out and setting: as for `CC(C)(Oc1ccc(CCCc2cc(-c3ccccc3)no2)cc1)C(=O)O` [Example 28, 2-methyl-2-{4-[3-(3-phenylisoxazol-5-yl)propyl]phenoxy}propanoic acid], the figure is 2.8.
Regarding `O=C(O)C1(Cc2ccc(OCc3cc(-c4ccc(C(F)(F)F)cc4)no3)cc2)CCCO1` (stereo not drawn) [Example 36], the “PPARγ luciferase fold activation relative to untreated cells” value was 9.8.

The same data set, now with this note: 50 μM.
As to `CCC(C)(Oc1ccc(OCc2cc(-c3ccc(C(F)(F)F)cc3)no2)cc1)C(=O)O` (stereo not drawn) [Example 11], the “PPARγ luciferase fold activation relative to untreated cells” value is reported as 3.6.
Same read-out and setting: as for `CC(C)(Oc1ccc(CCCc2cc(-c3ccccc3)no2)cc1)C(=O)O` [Example 28, 2-methyl-2-{4-[3-(3-phenylisoxazol-5-yl)propyl]phenoxy}propanoic acid], the figure is 12.4.
As to `O=C(O)C1(Cc2ccc(OCc3cc(-c4ccc(C(F)(F)F)cc4)no3)cc2)CCCO1` (stereo not drawn) [Example 36], the “PPARγ luciferase fold activation relative to untreated cells” value is listed as 13.5.

Another data set has as its target T2, human PPARδ (Homo sapiens, UniProt Q03181).
T2 construct: expressed in transfected cells; host or cells: HEK-293
T2 sequence (Q03181 211-439 limits assumed): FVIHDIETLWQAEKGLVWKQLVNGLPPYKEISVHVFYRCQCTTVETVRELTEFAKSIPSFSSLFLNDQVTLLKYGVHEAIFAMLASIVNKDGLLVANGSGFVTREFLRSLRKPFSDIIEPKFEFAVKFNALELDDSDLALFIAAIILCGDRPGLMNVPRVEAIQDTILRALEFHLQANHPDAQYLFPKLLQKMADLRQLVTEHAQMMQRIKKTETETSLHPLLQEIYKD
Put plainly: in vitro PPARδ transactivation (GAL4-LBD luciferase reporter in HEK-293 cells). It is filed as cell-based. The note with it: 1 μM.
From the text: as §1, §2
With `O=C(O)C1(Cc2ccc(OCc3cc(-c4ccc(C(F)(F)F)cc4)no3)cc2)CCCO1` (stereo not drawn) [Example 36], the “PPARδ luciferase fold activation relative to untreated cells” value amounted to 0.9.

Staying with this data set, now noted: 10 μM.
Turning to `O=C(O)C1(Cc2ccc(OCc3cc(-c4ccc(C(F)(F)F)cc4)no3)cc2)CCCO1` (stereo not drawn) [Example 36], the “PPARδ luciferase fold activation relative to untreated cells” value is on record as 26.4.

Staying with this data set, now noted: 50 μM.
As for `O=C(O)C1(Cc2ccc(OCc3cc(-c4ccc(C(F)(F)F)cc4)no3)cc2)CCCO1` (stereo not drawn) [Example 36], the “PPARδ luciferase fold activation relative to untreated cells” value is reported as 23.2.

Tested on in the next data set: not given
Assay: not given
Details: not given
As a reminder, the melting point is the temperature, or range, at which the solid turns liquid. Take `CCC(C)(Oc1ccc(OCc2cc(-c3ccc(C(F)(F)F)cc3)no2)cc1)C(=O)O` (stereo not drawn) [Example 11]: the melting point was in the range of 136 to 138 °C.

Another data set concerns Male Swiss albino mice. Put plainly: plasma triglyceride lowering in Swiss albino mice. It is filed as in vivo. The note with it: 1 mg/kg orally for 6 days, plasma triglycerides. The method, then:
Male Swiss albino mice (SAM) were obtained from National Institute Nutrition (NIN, Hyderabad, India) and housed in Dr. Reddy's Laboratories Ltd (DRL) animal house. All these animals were maintained under 12 hour light and dark cycle at 25±1° C. Animals were given standard laboratory chow (NIN, Hyderabad, India) and water, ad libitum. Mice of 20-25 grams body weight range were used. See Olivier, et al., Atherosclerosis, 1988, 70:107-114, incorporated herein by reference in its entirety. The test compounds were administered orally to mice at the doses shown in the following in table for 6 days. […] After centrifugation, plasma was separated for plasma triglyceride and total cholesterol measurement. See Wieland, Methods of Enzymatic Analysis, Bergermeyer, ed., 1963, 211-214; Trinder, Ann. Clin. Biochenz., 1969, 6:24-27, incorporated herein by reference in their entireties. Measurement of cholesterol and plasma triglyceride was done using a […] autoanalyser (Merck). The percent reductions in plasma triglycerides (TG)/total cholesterol were calculated according to the following formula: [formula] OC=Zero day control group value OT=Zero day treated group value TC=Test day control group value TT=Test day treated group value.
As for `O=C(O)C1(Cc2ccc(OCc3cc(-c4ccc(C(F)(F)F)cc4)no3)cc2)CCCO1` (stereo not drawn) [Example 36], the “% reduction in TG” value was found to be 26%.

The same data set, now with this note: 3 mg/kg orally for 6 days, plasma triglycerides.
Regarding `CCC(C)(Oc1ccc(OCc2cc(-c3ccc(C(F)(F)F)cc3)no2)cc1)C(=O)O` (stereo not drawn) [Example 11], the “% reduction in TG” value is 65%.
The same measure, in the same setting: with `CC(C)(Oc1ccc(CCCc2cc(-c3ccccc3)no2)cc1)C(=O)O` [Example 28, 2-methyl-2-{4-[3-(3-phenylisoxazol-5-yl)propyl]phenoxy}propanoic acid] the figure was 48%.

For a further data set, the system named is hypercholesterolemic Male Sprague Dawley rats. Put plainly: lipid lowering in hypercholesterolemic Sprague Dawley rats. The note with it: hypercholesterolemic SD rats, 3 mg/kg orally for 3 days, plasma triglycerides. It is filed as in vivo. The procedure:
Male Sprague Dawley rats (NIN stock) were bred in DRL animal house. Animals were maintained under 12 hour light and dark cycle at 25±1° C. Rats of 180-200 gram body weight range were used for the experiment. Animals were made hypercholesterolemic by feeding 2% cholesterol and 1% sodium cholate mixed with standard laboratory chow (NIN) for 6 days. Throughout the experimental period the animals were maintained on the same diet. Control rats were treated with vehicle alone (0.25% CMC; 10 ml/kg). Blood samples were collected in fed state 1 hour after drug administration on 0 and 3 days of treatment from the retro-orbital sinus through heparinized capillary tubes containing EDTA. After centrifugation, plasma sample was separated for total cholesterol, HDL and plasma triglyceride measurement. Measurement of total cholesterol, HDL and plasma triglyceride was done using a Vitalab Selectra autoanalyser (Merck). HDL was measured using a commercial kit. LDL and VLDL cholesterol were calculated from the data obtained for total cholesterol, HDL and plasma triglyceride.
The percent reductions in plasma triglycerides (TG)/total cholesterol (TC) were calculated as described in Example 55. The levels of LDL and VLDL cholesterol were calculated according to the following formulas: LDL cholesterol in mg/dl=[Total cholesterol−HDL cholesterol−Triglyceride/5] VLDL cholesterol in mg/dl=[Total cholesterol−HDL cholesterol−LDL cholesterol]
With `CCC(C)(Oc1ccc(OCc2cc(-c3ccc(C(F)(F)F)cc3)no2)cc1)C(=O)O` (stereo not drawn) [Example 11], the “% Reduction TG” value was 55%.
On the same count and under the same terms, as for `CC(C)(Oc1ccc(CCCc2cc(-c3ccccc3)no2)cc1)C(=O)O` [Example 28, 2-methyl-2-{4-[3-(3-phenylisoxazol-5-yl)propyl]phenoxy}propanoic acid], the figure is 62%; as for `O=C(O)C1(Cc2ccc(OCc3cc(-c4ccc(C(F)(F)F)cc4)no3)cc2)CCCO1` (stereo not drawn) [Example 36], 63%.

Still in this data set, the particulars now being: hypercholesterolemic SD rats, 3 mg/kg orally for 3 days, total cholesterol.
As for `CCC(C)(Oc1ccc(OCc2cc(-c3ccc(C(F)(F)F)cc3)no2)cc1)C(=O)O` (stereo not drawn) [Example 11], the “% Reduction TC” value is listed as 71%.
Same read-out and setting: as for `CC(C)(Oc1ccc(CCCc2cc(-c3ccccc3)no2)cc1)C(=O)O` [Example 28, 2-methyl-2-{4-[3-(3-phenylisoxazol-5-yl)propyl]phenoxy}propanoic acid], the figure is 70%; as for `O=C(O)C1(Cc2ccc(OCc3cc(-c4ccc(C(F)(F)F)cc4)no3)cc2)CCCO1` (stereo not drawn) [Example 36], 52%.

The same data set, now with this note: hypercholesterolemic SD rats, 3 mg/kg orally for 3 days; LDL cholesterol calculated from TC, HDL, TG.
In the case of `CCC(C)(Oc1ccc(OCc2cc(-c3ccc(C(F)(F)F)cc3)no2)cc1)C(=O)O` (stereo not drawn) [Example 11], the “% Reduction LDL” value is 76%.
The same measure, in the same setting: as for `O=C(O)C1(Cc2ccc(OCc3cc(-c4ccc(C(F)(F)F)cc4)no3)cc2)CCCO1` (stereo not drawn) [Example 36], the figure is 62%.

The data set is the same for the next values; noted with them: hypercholesterolemic SD rats, 3 mg/kg orally for 3 days; values represent % increase.
As to `CCC(C)(Oc1ccc(OCc2cc(-c3ccc(C(F)(F)F)cc3)no2)cc1)C(=O)O` (stereo not drawn) [Example 11], the HDL % increase is recorded as 139%.
As to `CC(C)(Oc1ccc(CCCc2cc(-c3ccccc3)no2)cc1)C(=O)O` [Example 28, 2-methyl-2-{4-[3-(3-phenylisoxazol-5-yl)propyl]phenoxy}propanoic acid], the HDL % increase amounted to 132%.
The compound `O=C(O)C1(Cc2ccc(OCc3cc(-c4ccc(C(F)(F)F)cc4)no3)cc2)CCCO1` (stereo not drawn) [Example 36] gave an HDL % increase of 128%.

In the next data set the target is T3, human PPARα (Homo sapiens, UniProt Q07869).
T3 construct: expressed in transfected cells; host or cells: HEK-293
T3 sequence (Q07869 239-466 limits assumed): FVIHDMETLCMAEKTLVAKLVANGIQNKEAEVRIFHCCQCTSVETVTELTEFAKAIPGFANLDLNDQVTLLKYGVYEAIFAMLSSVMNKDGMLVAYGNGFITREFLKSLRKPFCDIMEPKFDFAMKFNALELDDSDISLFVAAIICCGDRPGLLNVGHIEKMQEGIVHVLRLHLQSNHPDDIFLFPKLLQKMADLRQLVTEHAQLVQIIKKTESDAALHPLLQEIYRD
Put plainly: in vitro PPARα transactivation (GAL4-LBD luciferase reporter in HEK-293 cells). The note with it: 1 μM. The format is cell-based.
From the text: Generally, suitable PPAR agonists are believed to be useful for attenuating and/or treatment of diabetic dyslipidemia, metabolic syndrome, diabetes, cardiovascular disease, and obesity. The following procedure was used for in vitro determination of PPARα, γ and δ transactivation.
as §2
As for `CCC(C)(Oc1ccc(OCc2cc(-c3ccc(C(F)(F)F)cc3)no2)cc1)C(=O)O` (stereo not drawn) [Example 11], the “PPARα luciferase fold activation relative to untreated cells” value was determined as 4.1.
In the case of `CC(C)(Oc1ccc(CCCc2cc(-c3ccccc3)no2)cc1)C(=O)O` [Example 28, 2-methyl-2-{4-[3-(3-phenylisoxazol-5-yl)propyl]phenoxy}propanoic acid], the “PPARα luciferase fold activation relative to untreated cells” value was determined as 1.5.
As for `O=C(O)C1(Cc2ccc(OCc3cc(-c4ccc(C(F)(F)F)cc4)no3)cc2)CCCO1` (stereo not drawn) [Example 36], the “PPARα luciferase fold activation relative to untreated cells” value was found to be 4.1.

Staying with this data set, now noted: 10 μM.
In the case of `CCC(C)(Oc1ccc(OCc2cc(-c3ccc(C(F)(F)F)cc3)no2)cc1)C(=O)O` (stereo not drawn) [Example 11], the “PPARα luciferase fold activation relative to untreated cells” value was 4.0.
The same measure, in the same setting: with `CC(C)(Oc1ccc(CCCc2cc(-c3ccccc3)no2)cc1)C(=O)O` [Example 28, 2-methyl-2-{4-[3-(3-phenylisoxazol-5-yl)propyl]phenoxy}propanoic acid] the figure was 4.8.
As for `O=C(O)C1(Cc2ccc(OCc3cc(-c4ccc(C(F)(F)F)cc4)no3)cc2)CCCO1` (stereo not drawn) [Example 36], the “PPARα luciferase fold activation relative to untreated cells” value is recorded as 4.9.

Staying with this data set, now noted: 50 μM.
As to `CCC(C)(Oc1ccc(OCc2cc(-c3ccc(C(F)(F)F)cc3)no2)cc1)C(=O)O` (stereo not drawn) [Example 11], the “PPARα luciferase fold activation relative to untreated cells” value was 4.0.
For the compound `CC(C)(Oc1ccc(CCCc2cc(-c3ccccc3)no2)cc1)C(=O)O` [Example 28, 2-methyl-2-{4-[3-(3-phenylisoxazol-5-yl)propyl]phenoxy}propanoic acid], the “PPARα luciferase fold activation relative to untreated cells” value worked out at 5.9.
On the same count and under the same terms, as for `O=C(O)C1(Cc2ccc(OCc3cc(-c4ccc(C(F)(F)F)cc4)no3)cc2)CCCO1` (stereo not drawn) [Example 36], the figure is 5.4.
